According to US20050107437A1, “Novel herbicides” (priority 2001, published 2005):

How the values were obtained:
Assay type in all cases: in vivo
Chenopodium (Cheno) [1] = assay: Post-emergence herbicidal action (Example B2); details: 1000 g of active ingredient/ha, evaluated after 2 to 3 weeks, scale 1-9
Procedure: (§1) Monocotyledonous and dicotyledonous test plants are sown in standard soil in pots. When the test plants are at the 2- to 3-leaf stage, the test compounds, in the form of an aqueous suspension (prepared from a wettable powder (Example F3, b) according to WO 97/34485) or in the form of an emulsion (prepared from an emulsifiable concentrate (Example F1, c) according to WO 97/34485), are applied by spraying in an optimum concentration (500 litres of water/ha). The test plants are then grown on in a greenhouse under optimum conditions. After a test duration of 2 to 3 weeks, the test is evaluated in accordance with a scale of nine ratings (1=total damage, 9=no action). Ratings of from 1 to 4 (especially from 1 to 3) indicate good to very good herbicidal action. Test plants: Setaria (Seta), Panicum (Pani), Echinochloa (Ds) (Echino), Amaranthus (Amar), Chenopodium (Cheno), Stellaria (Stella), Veronica, Euphorbia (Eupho).

[2] = system: Echinochloa (Ds) (Echino); assay: Post-emergence herbicidal action (Example B2); details: 1000 g of active ingredient/ha, evaluated after 2 to 3 weeks, scale 1-9
Procedure: as §1

Panicum (Pani) [3] = assay: Post-emergence herbicidal action (Example B2); details: 1000 g of active ingredient/ha, evaluated after 2 to 3 weeks, scale 1-9
Procedure: as §1

Setaria (Seta) [4] = assay: Post-emergence herbicidal action (Example B2); details: 1000 g of active ingredient/ha, evaluated after 2 to 3 weeks, scale 1-9
Procedure: as §1

Amaranthus (Amar) [5] = assay: Post-emergence herbicidal action (Example B2); design: key: 1=total damage; 9=no action; Ratings of from 1 to 4 (especially from 1 to 3) indicate good to very good herbicidal action; details: 1000 g of active ingredient/ha, evaluated after 2 to 3 weeks, scale 1-9
Procedure: as §1

Euphorbia (Eupho) [6] = assay: Post-emergence herbicidal action (Example B2); design: key: 1=total damage; 9=no action; Ratings of from 1 to 4 (especially from 1 to 3) indicate good to very good herbicidal action; details: 1000 g of active ingredient/ha, evaluated after 2 to 3 weeks, scale 1-9
Procedure: as §1

[7] = system: Echinochloa (Ds) (Echino); assay: Pre-emergence herbicidal action (Example B1); design: key: 1=total damage; 9=no action; Ratings of from 1 to 4 (especially from 1 to 3) indicate good to very good herbicidal action; details: 1000 g of active ingredient/ha, 4 weeks, scale of nine ratings
Procedure: as §1, with “Immediately after sowing,” for “When the test plants are at the 2- to 3-leaf stage,”, “grown” for “grown on”, “4” for “2 to 3”, “(Eupho), Brachiaria (Brachi).” for “(Eupho).”

Amaranthus (Amar) [8] = assay: Pre-emergence herbicidal action (Example B1); design: key: 1=total damage; 9=no action; Ratings of from 1 to 4 (especially from 1 to 3) indicate good to very good herbicidal action; details: 1000 g of active ingredient/ha, 4 weeks, scale of nine ratings
Procedure: as §1, with “Immediately after sowing,” for “When the test plants are at the 2- to 3-leaf stage,”, “grown” for “grown on”, “4” for “2 to 3”, “(Eupho), Brachiaria (Brachi).” for “(Eupho).”

Panicum (Pani) [9] = assay: Pre-emergence herbicidal action (Example B1); design: key: 1=total damage; 9=no action; Ratings of from 1 to 4 (especially from 1 to 3) indicate good to very good herbicidal action; details: 1000 g of active ingredient/ha, 4 weeks, scale of nine ratings
Procedure: as §1, with “Immediately after sowing,” for “When the test plants are at the 2- to 3-leaf stage,”, “grown” for “grown on”, “4” for “2 to 3”, “(Eupho), Brachiaria (Brachi).” for “(Eupho).”

Brachiaria (Brachi) = assay: Pre-emergence herbicidal action (Example B1); design: key: 1=total damage; 9=no action; Ratings of from 1 to 4 (especially from 1 to 3) indicate good to very good herbicidal action; details: 1000 g of active ingredient/ha, 4 weeks, scale of nine ratings
Procedure: as §1, with “Immediately after sowing,” for “When the test plants are at the 2- to 3-leaf stage,”, “grown” for “grown on”, “4” for “2 to 3”, “(Eupho), Brachiaria (Brachi).” for “(Eupho).”

Euphorbia (Eupho) [10] = assay: Pre-emergence herbicidal action (Example B1); design: key: 1=total damage; 9=no action; Ratings of from 1 to 4 (especially from 1 to 3) indicate good to very good herbicidal action; details: 1000 g of active ingredient/ha, 4 weeks, scale of nine ratings
Procedure: as §1, with “Immediately after sowing,” for “When the test plants are at the 2- to 3-leaf stage,”, “grown” for “grown on”, “4” for “2 to 3”, “(Eupho), Brachiaria (Brachi).” for “(Eupho).”

Setaria (Seta) [11] = assay: Pre-emergence herbicidal action (Example B1); design: key: 1=total damage; 9=no action; Ratings of from 1 to 4 (especially from 1 to 3) indicate good to very good herbicidal action; details: 1000 g of active ingredient/ha, 4 weeks, scale of nine ratings
Procedure: as §1, with “Immediately after sowing,” for “When the test plants are at the 2- to 3-leaf stage,”, “grown” for “grown on”, “4” for “2 to 3”, “(Eupho), Brachiaria (Brachi).” for “(Eupho).”

Veronica [12] = assay: Post-emergence herbicidal action (Example B2); details: 1000 g of active ingredient/ha, evaluated after 2 to 3 weeks, scale 1-9
Procedure: as §1

Stellaria (Stella) [13] = assay: Post-emergence herbicidal action (Example B2); details: 1000 g of active ingredient/ha, evaluated after 2 to 3 weeks, scale 1-9
Procedure: as §1

Veronica [14] = assay: Pre-emergence herbicidal action (Example B1); details: 1000 g of active ingredient/ha, 4 weeks, scale of nine ratings
Procedure: as §1, with “Immediately after sowing,” for “When the test plants are at the 2- to 3-leaf stage,”, “grown” for “grown on”, “4” for “2 to 3”, “(Eupho), Brachiaria (Brachi).” for “(Eupho).”

Chenopodium (Cheno) [15] = assay: Pre-emergence herbicidal action (Example B1); design: key: 1=total damage; 9=no action; Ratings of from 1 to 4 (especially from 1 to 3) indicate good to very good herbicidal action; details: 1000 g of active ingredient/ha, 4 weeks, scale of nine ratings
Procedure: as §1, with “Immediately after sowing,” for “When the test plants are at the 2- to 3-leaf stage,”, “grown” for “grown on”, “4” for “2 to 3”, “(Eupho), Brachiaria (Brachi).” for “(Eupho).”

Stellaria (Stella) [16] = assay: Pre-emergence herbicidal action (Example B1); design: key: 1=total damage; 9=no action; Ratings of from 1 to 4 (especially from 1 to 3) indicate good to very good herbicidal action; details: 1000 g of active ingredient/ha, 4 weeks, scale of nine ratings
Procedure: as §1, with “Immediately after sowing,” for “When the test plants are at the 2- to 3-leaf stage,”, “grown” for “grown on”, “4” for “2 to 3”, “(Eupho), Brachiaria (Brachi).” for “(Eupho).”

SMILES | Post-emergence herbicidal action rating, Cheno (Chenopodium (Cheno) [1]) | Post-emergence herbicidal action rating, Echino (Ds) [2] | Post-emergence herbicidal action rating, Pani (Panicum (Pani) [3]) | Post-emergence herbicidal action rating, Seta (Setaria (Seta) [4]) | Post-emergence herbicidal action rating, Amar (Amaranthus (Amar) [5]) | Post-emergence herbicidal action rating, Eupho (Euphorbia (Eupho) [6]) | Herbicidal rating Echino (Ds) [7] | Herbicidal rating Amar (Amaranthus (Amar) [8]) | Herbicidal rating Pani (Panicum (Pani) [9]) | Herbicidal rating Brachi (Brachiaria (Brachi)) | Herbicidal rating Eupho (Euphorbia (Eupho) [10]) | Herbicidal rating Seta (Setaria (Seta) [11]) | Post-emergence herbicidal action rating, Veronica (Veronica [12]) | Post-emergence herbicidal action rating, Stella (Stellaria (Stella) [13]) | Herbicidal rating Veronica (Veronica [14]) | Herbicidal rating Cheno (Chenopodium (Cheno) [15]) | Herbicidal rating Stella (Stellaria (Stella) [16])
COc1cc(Cl)cnc1OCC#Cc1cccc(OCC#N)n1 [1.063, 2-[3-(6-cyanomethoxy-pyrid-2-yl)-prop-2-ynyloxy]-5-chloro-3-methoxypyridine] | 2 | 3 | 3 | 5 | 2 | 1 | 4 | 1 | 1 | 1 | 1 | 2 | – | – | – | – | –
COc1cc(F)cnc1OCC#Cc1ccc(Cl)nc1 [2.005, 2-[3-(6-chloro-pyrid-3-yl)-prop-2-ynyloxy]-5-fluoro-3-methoxy-pyridine] | 3 | – | 4 | 3 | 1 | 1 | 1 | – | 4 | 1 | 5 | 4 | 2 | 2 | 4 | 1 | 1
COc1cc(Cl)cnc1OCC#Cc1ccc(Cl)nc1 [2.006, 5-chloro-2-[3-(6-chloro-pyrid-3-yl)-prop-2-ynyloxy]-3-methoxy-pyridine] | 2 | – | 2 | 2 | 2 | 1 | 1 | 1 | 1 | 1 | 1 | 1 | 2 | 2 | 5 | – | 1
